Data as given in US20210120812A1, “FRESHNESS-RETENTIVE FILM” (MITSUI CHEMICALS TOHCELLO, INC., priority 2013, published 2021).

Each compound was assayed on Escherichia coli (E. coli) (assay: Antibacterial test according to JIS Z2801 using E. coli (film surface not wiped with alcohol)). Details: judgement in the text.
Type: cell-based
Protocol: For example, in an antibacterial test according to JIS Z2801, a predetermined amount of Escherichia coli (E. coli) or the like is added to a 1/500 nutrient broth. The nutrient broth is dropped onto the surface of the film of a 4 cm square, and is covered with a polyethylene film. The sample is placed at 35° C. After 24 hours, the surface of the freshness-retentive film is washed to recover the nutrient broth. The number of bacterial cells is measured with a nutrient agar. In this test method, alkyldiethanolamine should be diffused in the nutrient broth (solution) in a concentration of 30 ppm or more.
An antibacterial test was performed using Escherichia coli (E. coli) according to JIS Z2801. To keep the state of the surface of the freshness-retentive film, the surface thereof was not wiped with alcohol.
Predetermined amounts of Escherichia coli (E. coli), Staphylococcus aureus, Salmonella, and Vibrio parahaemolyticus (broth (0.4 cc) used in a JIS test) were added to a 1/500 nutrient broth. The nutrient broth was dropped onto the surface of a freshness-retentive film of a 4 cm square, and was covered with a polyethylene film. The film was placed at 35° C., and after 24 hours, the surface of the freshness-retentive film was washed. The washing liquid containing the nutrient broth was recovered, and was cultured on a nutrient agar. The number of colonies was counted.
Since the number of bacterial cells is difficult to count under a microscope, the number of colonies was visually counted. The number of colonies per gram (g) was defined as the number of living bacterial cells CFU (colony forming unit) (unit: [colonies/g]). A sample sandwiched between two polyethylene films was used as a control (Control) for comparison. In Tables, the averages at n=1 to 3 are also shown. If a fluctuation in the measured values is 10 times or more, the average is not calculated according to the JIS specification.
An antibacterial test was performed in the same manner as in Experiment 1.
An antibacterial test was performed in the same manner as in Experiment 1. […]

**Q.** diglycerol monopalmitate was tested. Which “antibacterial characteristics against E. coli (in words)” value (“antibacterial characteristics” below) did it give?
**A.** does not inhibit the antibacterial activity of stearyldiethanolamine

**Q.** With CCCCCCCCCCCCCCCCCCN(CCO)CCO [stearyldiethanolamine] as the compound, how does the “antibacterial characteristics” value read?
**A.** significantly superior to those of stearyldiethanolamine monostearate

**Q.** For CCCCCCCCCCCCCCCCCC(=O)OCC(O)CO (stereo not drawn) [glycerol monostearate], which “antibacterial characteristics” value is on record?
**A.** inhibits the antibacterial activity of stearyldiethanolamine
